In ChEMBL document CHEMBL1156829 (Proc Natl Acad Sci U S A, 2008):

Experiments:
[1] = system: Plasmodium falciparum; assay: NOVARTIS: Inhibition of Plasmodium falciparum 3D7 (drug-susceptible) proliferation in erythrocyte-based infection assay; type: functional, organism-based; conditions: Plasmodium falciparum, 3D7
[2] = system: Plasmodium falciparum; assay: NOVARTIS: Inhibition of Plasmodium falciparum W2 (drug-resistant) proliferation in erythrocyte-based infection assay; type: functional, organism-based; conditions: Plasmodium falciparum, W2; read-out: EC50
[3] = NOVARTIS: Cytotoxicity against human hepatocellular carcinoma cell line (Huh7); type: toxicity, cell-based, Huh-7; conditions: Huh7 cells (hepatocellular carcinoma cell line)

SMILES	EC50 [1] [nM]	EC50 [2] [nM]	CC50 [3] [nM]
COc1ccc(-c2cc3c(nn2)-c2ccccc2C3=O)cc1	3840	1640	65800
CC=C[C@H]1O[C@@](O)([C@@H](C)C(O)C(C)[C@H]2OC(=O)C(OC)=CC(C)=C[C@@H](C)[C@@H](O)[C@@H](C)[C@@H](O)C(C)CC(C)=CC=C[C@@H]2OC)C[C@@H](O[C@H]2C[C@@H](O)[C@H](OC(N)=O)[C@@H](C)O2)[C@@H]1C (some centres undefined)	> 1670	240	> 10000
CN1CCN(c2ccc(Nc3ccnc4ccccc34)cc2)CC1	220	237	> 10000
FC(F)(F)c1cccc(-c2cc(NCCCn3ccnc3)nc(-c3ccncc3)n2)c1	204	186	> 7720
CC(=O)CSc1nnc(-c2ccncc2)n1C	> 1250	310	> 12700
O=C(O)Cn1cnc2nc3n(c2c1=O)CCC3	> 10400	2420	> 100000
Oc1cccc(Nc2nc(NCc3ccco3)c3ccccc3n2)c1	275	279	11500
COC(=O)c1ccnn(-c2ccccc2)c1=O	> 1690	319	12900
O=C(NC(c1ccccc1)c1ccccc1)N(Cc1ccccc1)CC(O)CN(CCN1CCOCC1)S(=O)(=O)Cc1ccccc1 (centres undefined)	115	162	> 6820
Cc1c(CN2CCC(N3CCC(C(=O)NC4CC4)CC3)CC2)[nH]c2c(Cl)cccc12	345	1400	56500
CCC(SC1=Nc2ccccc2C2=NC(C(C)C)C(=O)N12)C(=O)Nc1cccc(C)c1 (centres undefined)	7020	2400	> 100000
O=C(c1ccccc1F)N1CCN(Cc2ccccc2C(F)(F)F)CC1	511	2470	> 100000
Cc1cc(O)ccc1-c1cnc2ccccc2n1	> 541	241	> 10000
O=C1CC(c2nc3ccccc3n2CCCOc2ccccc2)CN1c1ccc(F)cc1 (centres undefined)	> 882	239	> 10000
N#Cc1ccccc1Cn1nc(-c2cccnc2)oc1=O	> 12500	2380	> 100000
CCN(CC)C(=O)N1CCN(c2ccc(Nc3ccnc4cc5ccccc5cc34)cc2)CC1	961	2470	> 100000
COC(=O)c1cnn(-c2ccccc2)c1C=NOC(=O)c1ccccc1	> 5290	2380	> 100000
CC(C)CN(CC(=O)Nc1cc(C(C)(C)C)nn1-c1ccccc1)C(=O)COc1ccccc1	773	432	17600
CN1CCN(Nc2ccnc3cc4ccccc4cc23)CC1	104	246	> 10000
CCN(c1ccccc1)S(=O)(=O)c1ccc(F)c(C(=O)Nc2c(C)cccc2C)c1	> 12500	2450	> 100000
CSc1nnc(CCNC(=O)c2c(-c3ccccc3)noc2C)n1-c1ccc(F)cc1	> 12500	2410	> 100000
Cc1nc(NN=Cc2ccccc2O)cc(N2CCCCC2)n1	1080	237	> 10000
COC(=O)C1=CN(Cc2ccc(Cl)cc2)C=C(C(=O)OC)C1c1ccc(Cl)c(Cl)c1	> 8190	2360	> 100000
COc1ccc(Nc2nc(Nc3ccc(OC)cc3)c3ccccc3n2)cc1	57.3	51.9	2100
COc1ccc(-n2nc(C(=O)NCC(=O)NCCCN3CC(C)CC(C)C3)c3ccccc3c2=O)cc1Cl (centres undefined)	> 7360	1870	76400
Cc1ccc(S(=O)(=O)Nn2c(SCC(=O)NCCc3ccc(S(N)(=O)=O)cc3)nc3ccccc3c2=O)cc1	> 12500	2490	> 100000
Cc1ccc(-c2nc(CS(=O)(=O)CC(=O)NC3CCC(C)CC3)c(C)o2)cc1 (centres undefined)	> 1250	> 244	> 10000

SMILES	EC50 [1] [nM]	EC50 [2] [nM]	CC50 [3] [nM]
Cc1ccc(O)c(NC(=O)c2cnn3c(C(F)(F)F)cc(-c4ccc(Br)cc4)nc23)c1	7450	2480	> 100000
CCCCN1C=Nc2cc(C(=O)NCc3ccc(OC)cc3)ccc2C1	463	243	> 10000
CN(c1ccccc1)S(=O)(=O)c1ccc(C(=O)Nc2ccc(-c3nc4ccccc4[nH]3)cc2)cc1	788	1040	42800
COc1cc(OC)cc(-n2nc(C(=O)NCCCN3CC(C)CC(C)C3)c3ccccc3c2=O)c1 (centres undefined)	> 12500	2440	> 100000
COc1ccc(S(=O)(=O)Nc2ccc(N3CCC(Cc4ccccc4)CC3)c(C(=O)NC(C)C)c2)cc1	2120	2430	> 100000
Cc1ccc(N2CCN(CCNCc3ccc(F)cc3)[C@@H](Cc3ccc(O)cc3)C2)cc1	443	240	> 10000
Cc1ccc(-c2c[n+](Cc3cccc(C)c3)c3n2CCC3)cc1	568	493	20600
CC(Oc1ccc(Cl)cc1Cl)c1nc(-c2ccc(NC(=O)c3cccs3)cc2)no1 (centres undefined)	429	631	25600
COc1ccc(Nc2ncnc3[nH]c(-c4cccc([N+](=O)[O-])c4)cc23)cc1	2490	2500	> 100000
CN(CCCNc1ccnc2cc(Cl)ccc12)S(=O)(=O)c1cccc2cccnc12	188	249	> 10000
COC(=O)C1=CNC=C(C(=O)OC)C1c1cc(OC)c(OC)cc1OC	> 1350	245	> 10000
COc1ccc(-c2c[n+](CC(=O)O[C@H]3C[C@H](C)CC[C@@H]3C(C)C)c3n2CCCCC3)cc1	450	404	16500
CCOc1ccccc1-n1c(C(C)N(Cc2ccccc2)C(=O)Nc2cccc3ccccc23)nc2ccccc2c1=O (centres undefined)	855	242	> 10000
Cc1c(C(=O)Nc2ccccc2)sc2ncn(Cc3ccccc3Cl)c(=O)c12	5400	2420	> 100000
CCCOc1ccc(NC(=O)c2ccco2)cc1	1150	406	16900
CCOc1ccccc1C(=O)NC(Nc1sc2c(c1C(N)=O)CCCC2)(C(F)(F)F)C(F)(F)F	> 7500	2490	> 100000
O=C1CSC(=NN=Cc2cccnc2)N1c1ccccc1	> 12500	2490	> 100000
O=C(Nc1ccccc1O)c1ccc(C(=O)N(C2CCCCC2)C2CCCCC2)cc1	1470	> 2450	> 100000
COc1ccc(/C=C(/C#N)C(=O)Nc2cccc3ccccc23)cc1	> 1160	> 241	> 10000
COc1ccccc1N1C(=N)SC(=Cc2ccc(N(C)C)cc2)C1=O	101	52.5	2220
CCOc1ccc2nc(C)cc(Nc3ccc(Br)cc3)c2c1	114	182	7290
COc1cc(OC)cc(C(=O)N(C)CCCNc2ccnc3cc(Cl)ccc23)c1	143	116	4700
CCC(c1nc2ccccc2c(=O)n1-c1ccccc1OC)N(CCc1ccccc1)C(=O)c1ccc(F)cc1 (centres undefined)	1020	180	> 7250
COC(=O)c1ccc(C2C3=C(O)CC(c4cccs4)CC3=Nc3ccccc3N2C(=O)c2ccccc2)cc1 (centres undefined)	436	625	25000
CCN1/C(=C/C2=CC(=C/c3sc4ccccc4[n+]3CC)/CC(C)(C)C2)C=Cc2ccccc21	486	1030	42200
CCn1ncc(CN2CCC(C(=O)Nc3ccccc3-c3cccc(OC)c3)CC2)c1C	> 12500	1160	47600
